The source of these data is article PMC4704022, “Insights on FXR selective modulation. Speculation on bile acid chemical space in the discovery of potent and selective agonists” (Scientific Reports, 2016).

The target in one assay is T1, FXR (Homo sapiens, UniProt Q96RI1).
T1 construct: expressed in transfected cells; host or cells: HepG2
T1 sequence (Q96RI1 1-486): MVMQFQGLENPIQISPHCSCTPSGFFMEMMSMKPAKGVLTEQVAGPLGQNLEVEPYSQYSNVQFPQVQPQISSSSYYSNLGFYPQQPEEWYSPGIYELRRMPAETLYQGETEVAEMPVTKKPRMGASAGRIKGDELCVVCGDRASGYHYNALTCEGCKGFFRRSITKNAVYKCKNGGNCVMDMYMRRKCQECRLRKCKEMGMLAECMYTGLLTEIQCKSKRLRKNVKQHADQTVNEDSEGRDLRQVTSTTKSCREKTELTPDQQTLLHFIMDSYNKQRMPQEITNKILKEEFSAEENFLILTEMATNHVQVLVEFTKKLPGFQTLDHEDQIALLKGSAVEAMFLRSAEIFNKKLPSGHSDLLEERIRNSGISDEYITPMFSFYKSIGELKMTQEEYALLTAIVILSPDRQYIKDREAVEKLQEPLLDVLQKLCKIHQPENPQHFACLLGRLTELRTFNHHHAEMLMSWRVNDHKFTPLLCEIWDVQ
T1 sequence (P19793 1-462 partner): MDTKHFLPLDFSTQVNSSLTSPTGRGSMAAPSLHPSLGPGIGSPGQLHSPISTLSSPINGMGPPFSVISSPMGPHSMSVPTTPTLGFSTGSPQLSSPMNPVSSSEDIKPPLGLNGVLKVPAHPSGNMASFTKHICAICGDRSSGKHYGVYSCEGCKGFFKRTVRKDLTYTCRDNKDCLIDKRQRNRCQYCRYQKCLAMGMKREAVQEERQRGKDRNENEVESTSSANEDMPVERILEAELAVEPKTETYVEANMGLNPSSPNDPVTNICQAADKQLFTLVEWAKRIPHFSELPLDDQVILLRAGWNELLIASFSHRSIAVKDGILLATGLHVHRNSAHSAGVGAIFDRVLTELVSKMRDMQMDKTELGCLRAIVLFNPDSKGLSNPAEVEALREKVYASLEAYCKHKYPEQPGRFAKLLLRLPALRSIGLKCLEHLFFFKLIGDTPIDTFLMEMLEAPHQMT
As to the kind of experiment: FXR transactivation luciferase reporter assay in transfected HepG2 cells. The format is cell-based. Here is the method:
Figure 6 Transactivation assays on FXR. (A) HepG2 cells were transfected with pSG5-FXR, pSG5-RXR, pCMV-βgal, and p(hsp27)TKLUC vectors. […] Twenty-four hour post transfection cells were stimulated with increasing concentrations of each agent: range from 100 nM to 10 μM.
To evaluate the transcriptional activity of FXR, HepG2 cells were transiently transfected with Fugene HD reagent (Promega) using the followings plasmids: pCMVSPORT-humanFXR, pSG5RXR, p(hsp27)TKLUC and pGL4.70, a plasmid containing the Renilla gene used for luciferase normalization.

The next assay deals with T2, GPBAR1 (Homo sapiens, UniProt Q8TDU6).
T2 construct: expressed in transfected cells; host or cells: HEK-293T
T2 sequence (Q8TDU6 1-330): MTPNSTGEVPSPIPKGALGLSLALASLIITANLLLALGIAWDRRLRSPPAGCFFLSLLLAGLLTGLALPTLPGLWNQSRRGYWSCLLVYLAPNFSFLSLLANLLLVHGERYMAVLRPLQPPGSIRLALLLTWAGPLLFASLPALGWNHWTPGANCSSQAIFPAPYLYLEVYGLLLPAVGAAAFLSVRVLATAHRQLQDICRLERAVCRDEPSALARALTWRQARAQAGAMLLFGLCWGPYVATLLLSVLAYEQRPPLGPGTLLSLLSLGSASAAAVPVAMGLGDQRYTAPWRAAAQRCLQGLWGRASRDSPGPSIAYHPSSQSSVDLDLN
As to the kind of experiment: GPBAR1 agonism, CRE-luciferase transactivation assay in transfected HEK-293T cells. The format is cell-based. Particulars: HEK-293T, compounds at 10 μM; TLCA 10 μM as positive control. On the procedure:
(A) HEK-293T cells were co-transfected with GPBAR1 and a reporter gene containing a cAMP responsive element in front of the luciferase gene. Twenty-four hour post transfection cells were stimulated with 7–21 (10 μM). Luciferase activity served as a measure of the rise in intracellular cAMP following activation of GPBAR1. […] Twenty-four hour post transfection cells were stimulated with increasing concentrations of each agent: range from 100 nM to 50 μM. Results are expressed as mean ± standard error.
To investigate GPBAR1 activation, HEK-293T cells were transiently transfected with Fugene HD reagent (Promega) using the following vectors: pCMVSPORT6-human GPBAR1, pGL4.29 (Promega), a reporter vector containing a cAMP response element (CRE) cloned upstream to the luciferase reporter gene luc2P and pGL4.70. […] Dose-response curves were performed in HEK-293T cells transfected as described above and treated with increasing concentrations of 9 and 21 (from 100 nM to 50 μM). […] At 18 h post stimulations, cellular lysate was assayed for luciferase and renilla activities using the Dual-Luciferase Reporter assay system (E1980, Promega). Luminescence was measured using Glomax 20/20 luminometer (Promega). Luciferase activities were normalized with Renilla activities.

“Also recorded” adds a separate entry of the source.

Compound `CC[C@H]1[C@@H](O)[C@@H]2[C@H](CC[C@]3(C)[C@@H]([C@H](C)CCC(=O)O)CC[C@@H]23)[C@@]2(C)CCCC[C@@H]12` [compound 10, 6α-ethyl-7α-hydroxy-5β-cholan-24-oic acid] showed a 50% effective concentration (EC50) on FXR (HepG2 cells transfected with FXR, luciferase reporter, 100 nM to 10 μM) of 950 nM. Further, the “FXR transactivation activity (in words)” value on FXR (HepG2 cells, compounds at 10 μM, CDCA 10 μM and 6-ECDCA 1 μM as positive controls) is on record as “potent agonists of FXR”. The “GPBAR1 agonism (in words)” value at GPBAR1 is “inactive towards GPBAR1 in agonistic mode; also recorded: devoid of any activity toward GPBAR1 in agonistic mode”.
